According to the supplement of paper PMC10307832:

Legend:
Assay in all cases: relative viability (nuclei count vs DMSO), 5 days (fraction); higher = more cells survive
[1] = compound: CC1(C)CNc2cc(NC(=O)c3cccnc3NCc3ccncc3)ccc21 [Motesanib] + CS(=O)(=O)CCNCc1ccc(-c2ccc3ncnc(Nc4ccc(OCc5cccc(F)c5)c(Cl)c4)c3c2)o1 [Lapatinib] (partner 2 µM)
Procedure, shortened: (§1)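 Lung cancer cell lines were pin-tool dosed in 1536-well plates on the day after seeding, with either a lone drug or a fixed anchor-drug dose plus five library-drug doses (not always all listed) in √10 steps. Nuclei were counted on 4× images after 5 days. Relative viability is the ratio of treated-well to vehicle-well nuclei counts, with each value a median of duplicate plates.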

[2] = compound: CC1(C)CNc2cc(NC(=O)c3cccnc3NCc3ccncc3)ccc21 [Motesanib] + CS(=O)(=O)N1CCN(Cc2cc3nc(-c4cccc5[nH]ncc45)nc(N4CCOCC4)c3s2)CC1 [Pictilisib] (partner 1 µM)
Procedure, shortened: as §1

[3] = compound: C[C@@]1(C(=O)Nc2ccc(F)nc2)CCCN1c1nc(Nc2cc(C3CC3)n[nH]2)c2cccn2n1 + CC(=O)Nc1cccc(-n2c(=O)n(C3CC3)c(=O)c3c(Nc4ccc(I)cc4F)n(C)c(=O)c(C)c32)c1 [Trametinib] (partner 0.02 µM)
Procedure, shortened: as §1

[4] = compound: CC1(C)CNc2cc(NC(=O)c3cccnc3NCc3ccncc3)ccc21 [Motesanib] + CC(=O)Nc1cccc(-n2c(=O)n(C3CC3)c(=O)c3c(Nc4ccc(I)cc4F)n(C)c(=O)c(C)c32)c1 [Trametinib] (partner 0.02 µM)
Procedure, shortened: as §1

## UMC-11
[1]; first compound 0.01 µM
  relative viability: 0.901
[1]; first compound 0.03162 µM
  relative viability: 1.07
[1]; first compound 0.1 µM
  relative viability: 0.724
[1]; first compound 0.3162 µM
  relative viability: 1
[1]; first compound 1 µM
  relative viability: 1.08
[2]; first compound 0.01 µM
  relative viability: 0.778
[2]; first compound 0.03162 µM
  relative viability: 0.923
[2]; first compound 0.1 µM
  relative viability: 0.5
[2]; first compound 0.3162 µM
  relative viability: 0.759
[2]; first compound 1 µM
  relative viability: 0.863
[3]; first compound 0.04 µM
  relative viability: 0.703
[3]; first compound 0.1265 µM
  relative viability: 0.671
[3]; first compound 0.4 µM
  relative viability: 0.651
[3]; first compound 1.265 µM
  relative viability: 0.648
[4]; first compound 0.01 µM
  relative viability: 0.659
[4]; first compound 0.03162 µM
  relative viability: 0.94
[4]; first compound 0.1 µM
  relative viability: 0.611
[4]; first compound 0.3162 µM
  relative viability: 0.744
[4]; first compound 1 µM
  relative viability: 0.762
